Values of other authors as cited in patent US20070098804A1, “Solid particulate tadalafil having a bimodal particle size distribution” (priority 2005, published 2007).

Conditions: crystalline solid, reported in the PDR

solubility in water: practically insoluble in water
SMILES: CN1CC(=O)N2[C@H](c3ccc4c(c3)OCO4)c3[nH]c4ccccc4c3C[C@@H]2C1=O [Tadalafil]
